Results as given in article PMC9503898, “Synthesis and Evaluation of Two Long-Acting SSTR2 Antagonists for Radionuclide Therapy of Neuroendocrine Tumors” (Pharmaceuticals, 2022).
Positions of bridges follow the written chain, without caps; N, C: chain ends. Non-standard residues stand in square brackets, D forms with d. Residues, ends and D or L forms follow the SMILES beside them. *: point of attachment. DOTA = O=C(O)CN1CCN(CC(=O)O)CCN(CC(=O)*)CCN(CC(=O)O)CC1; dPhe(4-NHCONH2) = NC(=O)Nc1ccc(C[C@@H](N)C(=O)O)cc1; Butanoyl(4-(4-I-phenyl)) = O=C(CCCc1ccc(I)cc1)*; Dihydroorotyl(S) = O=C1C[C@@H](C(=O)*)NC(=O)N1; Phe(4-Cl) = N[C@@H](Cc1ccc(Cl)cc1)C(=O)O; Phe(4-NH2) = Nc1ccc(C[C@H](N)C(=O)O)cc1

Tests used:
[1] = Determination of lipophilicity (LogD7.4, shake-flask); format: physicochemical; settings: n-octanol/PBS (1:1), pH 7.4, PBS/n-octanol 1:1 (1 mL), ~1.5 MBq, gamma counter, n = 3 (triplicate), mean ± SEM, read-out: Log D7.4
Description: The distribution coefficient (LogD7.4) of the ^177Lu-labeled peptides was determined by the shake-flask method. For each radioligand, the experiment was performed in triplicate. The radiolabeled compound (~1.5 MBq) was added to a solution of phosphate buffered saline (PBS)/n-octanol (1 mL, v:v = 1:1) in eppendorf vials. The vials were vortexed vigorously and centrifuged at 10,000 rpm for 3 min. The n-octanol phase was separated from the aqueous phase, poured into new vials, and centrifuged for 15 min. Samples from each phase (10 μL) were measured using a gamma counter. The LogD7.4 value was calculated using the following equation: […].

[2] = Ex vivo biodistribution; settings: mouse, iv, 0.5 nmol, total radioactivity
[3] = biological target: human albumin (Homo sapiens, UniProt P02768); assay: Albumin binding properties (ultrafiltration); settings: ~1 MBq in human albumin/PBS (500 µL, v:v = 1:4), 1 h, 37 °C; Centrifree ultrafiltration 30 KDa; gamma counter; n = 3, mean ± SEM
[4] = Stability in mouse serum; format: in vitro ADME; settings: % intact radiolabeled ligand, ~3 MBq in 150 μL mouse serum, 37 °C, ACN protein precipitation, radio-HPLC, n = 1
Description: (§1) The ^177Lu-labeled compounds (~3 MBq) were incubated in PBS (300 μL) at 37 °C. The stability of the radiolabeled peptides was verified by radio-HPLC at 1, 4, and 24 h. The stability in serum was determined by incubating the radiolabeled compounds (~3 MBq) into 150 μL of mouse serum (Merck; Haarlerbergweg, The Netherlands) at 37 °C. At 1, 4, and 24 h post-incubation, the proteins were precipitated by adding an aliquot of 35 μL of the mixture to an equal volume of ACN. The vial was vortexed and centrifuged for 20 min. stability was monitored by radio-HPLC (Figures S4 and S5).

[5] = Stability in PBS; format: physicochemical; settings: % intact radiolabeled ligand, ~3 MBq in PBS (300 μL), 37 °C, radio-HPLC, n = 1
Description: as §1

[6] = In vivo SPECT/CT imaging; settings: mouse, H69 xenograft tumor, iv, 20 MBq/0.5 nmol per animal, total radioactivity
[7] = tested on: mice bearing SSTR2-positive H69 xenografts; assay: In vivo SPECT/CT imaging; settings: H69 xenograft mice, i.v. 20 MBq/0.5 nmol, n = 4

human albumin, sequence (P02768 25-609): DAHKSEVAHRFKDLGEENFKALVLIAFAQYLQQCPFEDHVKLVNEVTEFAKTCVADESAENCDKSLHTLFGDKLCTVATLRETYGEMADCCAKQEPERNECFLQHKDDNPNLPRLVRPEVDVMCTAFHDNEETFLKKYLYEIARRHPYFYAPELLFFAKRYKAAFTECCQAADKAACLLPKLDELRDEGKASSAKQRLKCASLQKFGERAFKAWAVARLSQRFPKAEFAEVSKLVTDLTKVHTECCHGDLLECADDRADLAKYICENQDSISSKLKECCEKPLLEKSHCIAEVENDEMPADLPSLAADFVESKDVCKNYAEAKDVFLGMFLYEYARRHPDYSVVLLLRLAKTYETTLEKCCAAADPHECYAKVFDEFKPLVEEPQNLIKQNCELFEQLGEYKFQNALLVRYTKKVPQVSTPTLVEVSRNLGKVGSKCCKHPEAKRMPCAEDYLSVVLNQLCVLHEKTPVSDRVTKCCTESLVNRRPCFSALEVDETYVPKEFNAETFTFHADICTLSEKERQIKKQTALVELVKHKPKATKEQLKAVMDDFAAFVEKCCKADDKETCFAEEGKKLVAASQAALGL

Q: Which logD [1] does the source give for `C[C@@H](O)[C@@H]1NC(=O)[C@H](CCCCN)NC(=O)[C@@H](Cc2ccc(NC(N)=O)cc2)NC(=O)[C@H](Cc2ccc(NC(=O)[C@@H]3CC(=O)NC(=O)N3)cc2)NC(=O)[C@H](NC(=O)[C@H](Cc2ccc(Cl)cc2)NC(=O)[C@H](CCCCNC(=O)CCCc2ccc(I)cc2)NC(=O)CN2CCN(CC(=O)O)CCN(CC(=O)O)CCN(CC(=O)O)CC2)CSSC[C@@H](C(=O)N[C@H](Cc2ccc(O)cc2)C(N)=O)NC1=O` [[^177Lu]Lu-8a, metal not drawn] ({DOTA}-K(Butanoyl(4-(4-I-phenyl)))[Phe(4-Cl)][dC][Phe(4-NH2)](Dihydroorotyl(S))[dPhe(4-NHCONH2)]KTC[dY]-NH2; disulfide 3-8) here?
A: Its logD is -1.6 ± 0.03.

Q: What about the tissue uptake at 4 h ([2]; blood) of the same molecule?
A: Its tissue uptake at 4 h is 21.3 ± 1.1 %ID/g.

Q: And the tissue uptake at 24 h ([2]; blood)?
A: Its tissue uptake at 24 h is 18.1 ± 4.2 %ID/g.

Q: And the tissue uptake at 48 h ([2]; blood)?
A: Its tissue uptake at 48 h is 12.9 ± 1.2 %ID/g.

Q: And the tissue uptake at 72 h ([2]; blood)?
A: Its tissue uptake at 72 h is 8.6 ± 0.5 %ID/g.

Q: What about the tissue uptake at 4 h ([2]; bone marrow) of the same molecule?
A: The tissue uptake at 4 h was 1.2 ± 2 %ID/g.

Q: What about the tissue uptake at 4 h ([2]; bone) of the same molecule?
A: Its tissue uptake at 4 h is 1.3 ± 1.8 %ID/g.

Q: And the tissue uptake at 24 h ([2]; bone)?
A: Its tissue uptake at 24 h is 1.5 ± 1.1 %ID/g.

Q: And the tissue uptake at 48 h ([2]; bone)?
A: The tissue uptake at 48 h was 0.9 ± 0.4 %ID/g.

Q: What about the tissue uptake at 72 h ([2]; bone) of the same molecule?
A: Its tissue uptake at 72 h is 1.2 ± 1 %ID/g.

Q: And the tissue uptake at 4 h ([2]; heart)?
A: The tissue uptake at 4 h was 7.6 ± 1.2 %ID/g.

Q: And the tissue uptake at 24 h ([2]; heart)?
A: Its tissue uptake at 24 h is 5.1 ± 0.7 %ID/g.

Q: And the tissue uptake at 48 h ([2]; heart)?
A: The tissue uptake at 48 h was 4.8 ± 0.5 %ID/g.

Q: And the tissue uptake at 72 h ([2]; heart)?
A: Its tissue uptake at 72 h is 3.9 ± 0.7 %ID/g.

Q: And the tissue uptake at 4 h ([2]; intestine)?
A: The tissue uptake at 4 h was 2.5 ± 0.2 %ID/g.

Q: And the tissue uptake at 24 h ([2]; intestine)?
A: Its tissue uptake at 24 h is 1.7 ± 0.1 %ID/g.

Q: What about the tissue uptake at 48 h ([2]; intestine) of the same molecule?
A: Its tissue uptake at 48 h is 1.4 ± 0.1 %ID/g.

Q: And the tissue uptake at 72 h ([2]; intestine)?
A: The tissue uptake at 72 h was 1.1 %ID/g.

Q: What about the tissue uptake at 4 h ([2]; kidney) of the same molecule?
A: The tissue uptake at 4 h was 9.6 ± 1.2 %ID/g.

Q: And the tissue uptake at 24 h ([2]; kidney)?
A: The tissue uptake at 24 h was 18.4 ± 1.9 %ID/g.

Q: What about the tissue uptake at 48 h ([2]; kidney) of the same molecule?
A: The tissue uptake at 48 h was 22.6 ± 1.9 %ID/g.

Q: What about the tissue uptake at 72 h ([2]; kidney) of the same molecule?
A: The tissue uptake at 72 h was 21.6 ± 1.4 %ID/g.

Q: And the tissue uptake at 4 h ([2]; liver)?
A: The tissue uptake at 4 h was 4.6 ± 1.2 %ID/g.

Q: What about the tissue uptake at 24 h ([2]; liver) of the same molecule?
A: Its tissue uptake at 24 h is 3.7 ± 0.2 %ID/g.

Q: And the tissue uptake at 48 h ([2]; liver)?
A: The tissue uptake at 48 h was 3.6 ± 0.2 %ID/g.

Q: And the tissue uptake at 72 h ([2]; liver)?
A: The tissue uptake at 72 h was 2.9 ± 0.3 %ID/g.

Q: And the tissue uptake at 4 h ([2]; lung)?
A: Its tissue uptake at 4 h is 9.9 ± 2.9 %ID/g.

Q: What about the tissue uptake at 24 h ([2]; lung) of the same molecule?
A: Its tissue uptake at 24 h is 7.5 ± 0.6 %ID/g.

Q: And the tissue uptake at 48 h ([2]; lung)?
A: The tissue uptake at 48 h was 7.2 ± 0.3 %ID/g.

Q: What about the tissue uptake at 72 h ([2]; lung) of the same molecule?
A: The tissue uptake at 72 h was 6 ± 0.5 %ID/g.

Q: And the tissue uptake at 4 h ([2]; muscle)?
A: The tissue uptake at 4 h was 0.8 ± 1.1 %ID/g.

Q: What about the tissue uptake at 24 h ([2]; muscle) of the same molecule?
A: The tissue uptake at 24 h was 1.1 ± 0.1 %ID/g.

Q: What about the tissue uptake at 48 h ([2]; muscle) of the same molecule?
A: The tissue uptake at 48 h was 1.2 ± 0.5 %ID/g.

Q: What about the tissue uptake at 72 h ([2]; muscle) of the same molecule?
A: Its tissue uptake at 72 h is 0.8 ± 0.1 %ID/g.

Q: And the tissue uptake at 4 h ([2]; pancreas)?
A: The tissue uptake at 4 h was 7.2 ± 0.3 %ID/g.

Q: And the tissue uptake at 24 h ([2]; pancreas)?
A: Its tissue uptake at 24 h is 6.6 ± 0.3 %ID/g.

Q: What about the tissue uptake at 48 h ([2]; pancreas) of the same molecule?
A: Its tissue uptake at 48 h is 6.3 ± 0.7 %ID/g.

Q: And the tissue uptake at 72 h ([2]; pancreas)?
A: The tissue uptake at 72 h was 5.3 ± 1.2 %ID/g.

Q: And the tissue uptake at 4 h ([2]; skin)?
A: Its tissue uptake at 4 h is 5.9 ± 1.1 %ID/g.

Q: What about the tissue uptake at 24 h ([2]; skin) of the same molecule?
A: Its tissue uptake at 24 h is 5.4 ± 0.9 %ID/g.

Q: What about the tissue uptake at 48 h ([2]; skin) of the same molecule?
A: Its tissue uptake at 48 h is 6.3 ± 1.6 %ID/g.

Q: What about the tissue uptake at 72 h ([2]; skin) of the same molecule?
A: Its tissue uptake at 72 h is 4.8 ± 0.3 %ID/g.

Q: And the tissue uptake at 4 h ([2]; spleen)?
A: Its tissue uptake at 4 h is 3.2 ± 0.7 %ID/g.

Q: What about the tissue uptake at 24 h ([2]; spleen) of the same molecule?
A: The tissue uptake at 24 h was 3.8 ± 0.4 %ID/g.

Q: What about the tissue uptake at 48 h ([2]; spleen) of the same molecule?
A: The tissue uptake at 48 h was 5.8 ± 0.6 %ID/g.

Q: What about the tissue uptake at 72 h ([2]; spleen) of the same molecule?
A: Its tissue uptake at 72 h is 5.4 ± 0.2 %ID/g.

Q: And the tissue uptake at 4 h ([2]; stomach)?
A: The tissue uptake at 4 h was 3.8 ± 0.4 %ID/g.

Q: And the tissue uptake at 24 h ([2]; stomach)?
A: The tissue uptake at 24 h was 3.1 ± 1.4 %ID/g.

Q: And the tissue uptake at 48 h ([2]; stomach)?
A: Its tissue uptake at 48 h is 3.3 ± 1.2 %ID/g.

Q: What about the tissue uptake at 72 h ([2]; stomach) of the same molecule?
A: Its tissue uptake at 72 h is 3 ± 0.5 %ID/g.

Q: And the tissue uptake at 4 h ([2]; tumor)?
A: Its tissue uptake at 4 h is 4.1 ± 0.5 %ID/g.

Q: What about the tissue uptake at 24 h ([2]; tumor) of the same molecule?
A: The tissue uptake at 24 h was 6.5 ± 0.2 %ID/g.

Q: And the tissue uptake at 48 h ([2]; tumor)?
A: Its tissue uptake at 48 h is 7.3 ± 0.4 %ID/g.

Q: And the tissue uptake at 72 h ([2]; tumor)?
A: The tissue uptake at 72 h was 7.3 ± 0.9 %ID/g.

Q: And the “Protein-Bound Fraction (%)” value [3]?
A: Its value is 89.5 ± 0.8%.

Q: And the remaining at 1 h ([4]; 1 h)?
A: The remaining at 1 h was 97.3%.

Q: And the remaining at 4 h ([4]; 4 h)?
A: The remaining at 4 h was 98.4%.

Q: What about the remaining at 24 h ([4]; 24 h) of the same molecule?
A: The remaining at 24 h was 98.5%.

Q: What about the “Stability in PBS (%) 1 h” value ([5]; 1 h) of the same molecule?
A: Its value is 96.5%.

Q: And the “Stability in PBS (%) 4 h” value ([5]; 4 h)?
A: Its value is 96.5%.

Q: What about the “Stability in PBS (%) 24 h” value ([5]; 24 h) of the same molecule?
A: Its value is 97.2%.

Q: And the tissue uptake per volume at 4 h [6]?
A: The tissue uptake per volume at 4 h was 3.7 ± 0.9 %ID/mL.

Q: And the tissue uptake per volume at 24 h [6]?
A: Its tissue uptake per volume at 24 h is 4.9 ± 0.5 %ID/mL.

Q: And the tissue uptake per volume at 48 h [6]?
A: The tissue uptake per volume at 48 h was 5.7 ± 0.6 %ID/mL.

Q: What about the tissue uptake per volume at 72 h [6] of the same molecule?
A: Its tissue uptake per volume at 72 h is 4.9 ± 0.3 %ID/mL.

Q: What about the “SPECT quantification, kidneys (K), 4 h” value ([7]; 4 h post-injection) of the same molecule?
A: Its value is 7.7 ± 0.9 % ID/mL.

Q: And the “SPECT quantification, kidneys (K), 24 h” value ([7]; 24 h post-injection)?
A: Its value is 10.1 ± 0.8 % ID/mL.

Q: What about the “SPECT quantification, kidneys (K), 48 h” value ([7]; 48 h post-injection) of the same molecule?
A: The value was 10.1 ± 0.3 % ID/mL.

Q: And the “SPECT quantification, kidneys (K), 72 h” value ([7]; 72 h post-injection)?
A: Its value is 8.9 ± 0.2 % ID/mL.
